This note sets out measurements from patent US8198469B2, “Crystalline forms of tigecycline and processes for preparation thereof” (Teva Pharmaceutical Industries Ltd., priority 2006, dated 2012).

Assay type in all cases: physicochemical
Data set [1] in a line: Exposure to 0% or 100% relative humidity for 7 days at room temperature, crystal form monitored by XRD. How it is done:
X-Ray powder diffraction data were obtained by using methods known in the art, using a SCINTAG powder X-Ray diffractometer model X'TRA equipped with a solid-state detector. A Copper radiation of 1.5418 Å was used. A round aluminum sample holder with zero background was used. The scanning parameters included: range: 20 to 40° 2θ; scan mode: continuous scan; step size: 0.05°. The rate for Form XX [FIG. 16] was 3°/min using spin mode while the remaining crystalline forms were 5°/min using spin mode. All peak positions are within ±0.2 degrees two theta. […]
Form I prepared from ethyl acetate (about 80 mg) as described in U.S. Application Ser. No. 60/796,800 was exposed to either 0% or 100% relative humidity for 7 days at room temperature. After the exposure the crystal form was monitored by XRD. […]

Data set [2] can be described thus: Polymorphic transition due to heating in oven, solid analyzed by XRD. As to the method: (§1) X-Ray powder diffraction data were obtained by using methods known in the art, using a SCINTAG powder X-Ray diffractometer model X'TRA equipped with a solid-state detector. A Copper radiation of 1.5418 Å was used. A round aluminum sample holder with zero background was used. The scanning parameters included: range: 20 to 40° 2θ; scan mode: continuous scan; step size: 0.05°. The rate for Form XX [FIG. 16] was 3°/min using spin mode while the remaining crystalline forms were 5°/min using spin mode. All peak positions are within ±0.2 degrees two theta.
Tigecycline Form X was placed in oven at a temperature of between about 50-150° C. for about 0.5-2 hr (for example: 60 for 2 hr, 140° C. for 1 hr).
Tigecycline Form XI was placed in oven at a temperature of between about 50-80° C. for about 1-2 hr (for example: 60 for 2 hr).
Tigecycline Form XVII was placed in oven at a temperature of between about 50-70° C. for about 1-2 hr (for example: 60 for 2 hr).
Tigecycline Form XVII was placed in oven at a temperature of between about 90-110° C. for about 0.5-1 hr (for example: 100 for 0.5 hr).
Tigecycline Form XVIII was placed in oven at a temperature of between about 120-150° C. for about 0.5-1 hr (for example: 140 for 1 hr).
Tigecycline Form XXIV was placed in oven at a temperature of between about 110-140° C. for about 0.5-1 hr (for example: 120 for 0.5 hr, 140° C. for 1 hr).

A short description of data set [3]: Pressing by a laboratory press, solid analyzed by XRD. As to conditions: pressure of about 1-2 tons for about 1-3 min (e.g. 2 tons for 1 min). As to the method:
as §1
Tigecycline Form XI was pressed by a laboratory press by pressure of about 1-2 tons for about 1-3 min (for example: 2 tons for 1 min).
Tigecycline Form XVII was pressed by a laboratory press by pressure of about 1-2 tons for about 1-3 min (for example: 2 tons for 1 min).

Data set [4] is described as follows: Strong grinding by mortar and pestle, solid analyzed by XRD. As to conditions: about 0.5-1 min. As to the method: as §1
Tigecycline Form XVII was strongly ground by mortal and pestle for about 0.5-1 min.

Data set [5] in a line: Vacuum drying of the solid, form re-analyzed by XRD. The settings on record: for Solid form after vacuum drying: dried under vacuum, temperature and time not stated; for Solid form by XRD after drying: overnight at 40° C. under vacuum. How it is done:
as §1
Tigecycline sample was dissolved in 20 volumes of hot iso-propanol. The solution thus obtained was allowed to cool at ambient temperature and then further cooled at 0-5° C. for about half an hour. The resulted suspension was filtered and the solid air-dried on the filter to afford Tigecycline of Form XII. The material was further dried overnight at 40° C. under vacuum without affecting the polymorphs, i.e. the vacuum dried Tigecycline was still identified as Form XII. The sizes of the Tigecycline Form XII crystals were less than 300 μm.
Tigecycline sample was dissolved in 20 volumes of n-propanol or 40 volumes of hot ethanol. The solution thus obtained was allowed to cool at ambient temperature and then further cooled at 0-5° C. for about half an hour. The resulted suspension was filtered and the solid air-dried on the filter to afford Tigecycline Form XIII. The material was further dried overnight under vacuum at 40° C. without affecting the polymorphs, i.e. the vacuum dried Tigecycline was still identified as Form XIII. The sizes of the Tigecycline Form XIII crystals were less than 300 μm.
2 grams of Tigecycline was dissolved in 440 mL of DDW and pH of the mixture was adjusted at 7.38 and 60 mL of THF were then added. The resulted solution was extracted 6 times with 60 mL portions of dichloromethane while pH is carefully controlled at 7.2-7.4. The combined organic extract was then dried over sodium sulfate and concentrated to about 10 mL to afford a suspension of Tigecycline. The solid was filtered and washed with heptane. Analysis of the material indicated Form XVII Tigecycline.
2 grams of Tigecycline was dissolved in 440 mL of DDW and pH of the mixture was adjusted at 7.33 and 60 mL of THF were then added. The resulted solution was extracted 6 times with 60 mL portions of dichloromethane while the pH is carefully controlled at 7.2-7.4. The combined organic extract was then dried over sodium sulfate, filtered and the solid was washed with 50 mL of dichloromethane into the initial filtrate. The combined filtrate was concentrated to 30-40 mL and the concentrated was stirred for about half an hour at 0-5° C. A precipitation occurred upon the cooling and the solid was collected and vacuum dried. Analysis of the material before and after the drying indicated Form XVIII of Tigecycline in both cases.
A solution of Tigecycline in dichloromethane was provided between 5 and 10 g/L, and dried over sodium sulfate. Toluene was added to the solution so that the total volume increased to about 1.15 of the original volume. The resulted solution was then partially evaporated so that the volume of the residual mixture was similar to that of the toluene added. The resulted suspension was filtered and the solid thus obtained was dried under vacuum. Analysis of the material before and after the drying indicated Form XIX of Tigecycline in both cases.
A solution of Tigecycline in dichloromethane was provided and dried over sodium sulfate. Di-n-butyl ether was added to the solution so that the total volume increased to about 1.15 of the original volume. The resulting solution was then partially evaporated so that the volume of the residual mixture was similar to that of the di-n-butyl ether added. The resulted suspension was filtered and the cake washed with di-n-butyl ether. Tigecycline thus obtained was identified as Form VIII in both wet and vacuum dried samples. […]

Setting [6] is: 120-150° C. for about 0.5-1 hr (e.g. 140° C. for 1 hr).

Regarding `CN(C)c1cc(NC(=O)CNC(C)(C)C)c(O)c2c1C[C@H]1C[C@H]3[C@H](N(C)C)C(O)=C(C(N)=O)C(=O)[C@@]3(O)C(O)=C1C2=O` [Form I, Tigecycline], the figures for the “Crystal form by XRD after exposure to relative humidity” value (from here on “Crystal form … to relative humidity”) in data set [1] (0% RH) and in data set [1] (100% RH) were “New form XXV” and “Amorphous”, respectively. Moreover, the “Solid form by XRD after heating in oven” value in data set [2] (setting [6]) is listed as “amorphous form”. Consider `CN(C)c1cc(NC(=O)CNC(C)(C)C)c(O)c2c1C[C@H]1C[C@H]3[C@H](N(C)C)C(O)=C(C(N)=O)C(=O)[C@@]3(O)C(O)=C1C2=O` [Form XI, Tigecycline], for which the “Solid form by XRD after pressing” value in data set [3] is “mixture of Form XI and Form VI”. For the same compound, in data set [1] (0% RH), the “Crystal form … to relative humidity” value was “mixture of Form XI and Form VI”. Also, the “Solid form by XRD after heating in oven” value in data set [2] (50-80° C. for about 1-2 hr (e.g. 60 for 2 hr)) was “mixture of Form XI and Form VI”. For `CN(C)c1cc(NC(=O)CNC(C)(C)C)c(O)c2c1C[C@H]1C[C@H]3[C@H](N(C)C)C(O)=C(C(N)=O)C(=O)[C@@]3(O)C(O)=C1C2=O` [Form XVII, Tigecycline], in data set [4], the “Solid form by XRD after strong grinding” value was “mixture of Form XVII and Form VI”. The “Solid form by XRD after pressing” value in data set [3] is “mixture of Form XVII and Form VI”. In data set [5], the “Solid form after vacuum drying” value was “Form XVII”. The “Solid form by XRD after heating in oven” value in data set [2] (50-70° C. for about 1-2 hr (e.g. 60 for 2 hr)) was “mixture of Form XVII and Form VI”; in data set [2] (90-110° C. for about 0.5-1 hr (e.g. 100 for 0.5 hr)), “Form VI”. Turning to `CN(C)c1cc(NC(=O)CNC(C)(C)C)c(O)c2c1C[C@H]1C[C@H]3[C@H](N(C)C)C(O)=C(C(N)=O)C(=O)[C@@]3(O)C(O)=C1C2=O` [Form XVIII, Tigecycline], the “Solid form after vacuum drying” value in data set [5] is recorded as “Form XVIII”. In data set [2] (setting [6]), the “Solid form by XRD after heating in oven” value is listed as “amorphous form”.

For the compound `CN(C)c1cc(NC(=O)CNC(C)(C)C)c(O)c2c1C[C@H]1C[C@H]3[C@H](N(C)C)C(O)=C(C(N)=O)C(=O)[C@@]3(O)C(O)=C1C2=O` [amorphous Tigecycline, Tigecycline], in data set [5], the “Solid form by XRD after drying” value is recorded as “amorphous”. For `CN(C)c1cc(NC(=O)CNC(C)(C)C)c(O)c2c1C[C@H]1C[C@H]3[C@H](N(C)C)C(O)=C(C(N)=O)C(=O)[C@@]3(O)C(O)=C1C2=O` [Form VII, Tigecycline], the “Crystal form … to relative humidity” value in data set [1] (0% RH) is listed as “Form XXIII”. For the compound `CN(C)c1cc(NC(=O)CNC(C)(C)C)c(O)c2c1C[C@H]1C[C@H]3[C@H](N(C)C)C(O)=C(C(N)=O)C(=O)[C@@]3(O)C(O)=C1C2=O` [Form XIX, Tigecycline], the “Solid form after vacuum drying” value in data set [5] is “Form XIX”. In the case of `CN(C)c1cc(NC(=O)CNC(C)(C)C)c(O)c2c1C[C@H]1C[C@H]3[C@H](N(C)C)C(O)=C(C(N)=O)C(=O)[C@@]3(O)C(O)=C1C2=O` [Form XXIV, Tigecycline], in data set [2] (110-140° C. for about 0.5-1 hr (e.g. 120 for 0.5 hr, 140° C. for 1 hr)), the “Solid form by XRD after heating in oven” value is “amorphous form”. Turning to `CN(C)c1cc(NC(=O)CNC(C)(C)C)c(O)c2c1C[C@H]1C[C@H]3[C@H](N(C)C)C(O)=C(C(N)=O)C(=O)[C@@]3(O)C(O)=C1C2=O` [Form X, Tigecycline], the “Solid form by XRD after heating in oven” value in data set [2] (50-150° C. for about 0.5-2 hr (e.g. 60 for 2 hr, 140° C. for 1 hr)) is “amorphous form”. For the compound `CN(C)c1cc(NC(=O)CNC(C)(C)C)c(O)c2c1C[C@H]1C[C@H]3[C@H](N(C)C)C(O)=C(C(N)=O)C(=O)[C@@]3(O)C(O)=C1C2=O` [Form VIII, Tigecycline], in data set [5], the “Solid form after vacuum drying” value was “Form VIII”. On to `CN(C)c1cc(NC(=O)CNC(C)(C)C)c(O)c2c1C[C@H]1C[C@H]3[C@H](N(C)C)C(O)=C(C(N)=O)C(=O)[C@@]3(O)C(O)=C1C2=O` [Form IX, Tigecycline], for which the “Crystal form … to relative humidity” value in data set [1] (100% RH) is recorded as “Form XXII”. On to `CN(C)c1cc(NC(=O)CNC(C)(C)C)c(O)c2c1C[C@H]1C[C@H]3[C@H](N(C)C)C(O)=C(C(N)=O)C(=O)[C@@]3(O)C(O)=C1C2=O` [Form XIII, Tigecycline], for which the “Solid form by XRD after drying” value in data set [5] is reported as “Form XIII”. For `CN(C)c1cc(NC(=O)CNC(C)(C)C)c(O)c2c1C[C@H]1C[C@H]3[C@H](N(C)C)C(O)=C(C(N)=O)C(=O)[C@@]3(O)C(O)=C1C2=O` [Form XII, Tigecycline], in data set [5], the “Solid form by XRD after drying” value was “Form XII”.
